Reference: patent US20260284050A1, “ACTIVATORS OF THE COLD STRESS RESPONSE AND USES THEREOF” (priority 2023, published 2026)
Like-named read-outs stand apart in the source and are kept apart here. Values belong to the compound of their own block, whether it stands above or below them. Where a SMILES comes first, the peptide text is derived from it. The star is where a group is joined. Cbz = O=C(OCc1ccccc1)*

Tests used:
[1] = tested on: SP1+MCRE-MHI; assay: cells; settings: HEK293FT; for fold induction at 20 µM: Homo sapiens
Method: Briefly, Lipofectamine 3000 (Thermofisher Scientific, L3000015) was used to transfect the SP1+MCRE indicator into the HEK293FT cell line. 24 h after transfection, 30000 cells were plated into each well of a 96 well black well plate. 48 h after transfection the cells were exposed to FDA Approved Drug Screening Library (L1300-Z298012) via the High Throughput Screening Services (ChemCore) at Johns Hopkins University. Each drug was exposed in 20 μM concentration. Total well GFP was read with the ClarioStarPlus Plate Reader (settings: gain 1500, 470-15 excitation and emission 515-20 at focal height 2.6) 16, 28, and 40 h after exposure of the library. Increase in fluorescence was calculated with dividing GFP reads from positive control at each time point with GFP reads of each well exposed to drug at the same timepoint for wells in the same lane. Compounds were validated in same concentration (20 μM). For validation cells were exposed to the drug for 24 hours, and evaluated by FACS as described in the section Transfection of indicators into cell lines.
To explore this in an unbiased manner, a systematic library drug screen (1953 FDA-approved inhibitors) was performed using HEK293FT cells transfected with the SP1+MCRE-MHI. […] Cells transfected with said MHI were exposed to the drug library (20 μM concentration) and fluorescence was measured after 16-, 28- and 40-hours of drug exposure. Drugs that could increase the indicator's fluorescence at least >3.75 times at one of the time points were further investigated.

[2] = tested on: SP1-MHI; assay: FACS validation in HEK293 cells with Cas9 and SP1-MHI; assay type: cell-based, human; settings: 20 μM
Method: HEK293 cell lines were transfected when 70-90% confluency was reached. Either Lipofectamine™ 2000 or 3000 (Thermofisher Scientific, #11668027, #L3000015) was used according to the manufacture's protocol. The fluorescence of the indicators was measured via FACS up to 48 hours after transfection. FACS data were analysed with the FlowJo Software, where gates were created on living cells, single cells, GFP positive cells and the fluorescence for that population was measured.
Each drug was exposed in 20 μM concentration. […] Compounds were validated in same concentration (20 μM).
HEK293 cells with Cas9 and SP1-MHI were individually exposed to each compound (20 μM) for 16 hours at either 32° C. or 37° C. followed by FACS. […] (Entacapone, Poziotinib), indicating activation of response with drug without hypothermic stimulus.

[3] = tested on: HEK293 cells; assay: Cell cycle phase evaluation of HEK293 cells; assay type: cell-based, human; settings: for cell cycle arrest: HEK293 cells exposed to compound
Method: To exclude the possibility of cell cycle arrest or increased apoptosis, cell cycle phase of HEK293 cells exposed to Pozitinib and Entacapone was evaluated. […] Similarly, there were no signs of activation of the MHIs after exposure to an apoptotic agent.

[4] = tested on: RBM3; assay: RT-qPCR of endogenous RBM3 relative to GAPDH; assay type: cell-based, human; settings: 16 h exposure at 37° C.
Method: (§1) Total RNA from cells incubated at 32° C. or 37° C. was isolated, using Direct-zol™ RNA Microprep (Zymo Research, R2062), according to the manufacturer's instructions. The concentration of RNA was measured by NanoDrop™ One Microvolume UV-Vis Spectrophotometer (Thermo Scientificv™) followed by cDNA synthesis with High-Capacity cDNA Reverse Transcription Kit (Applied Biosystems™, 4368814) on MiniAmp™ Thermal Cycler (Applied Biosystems™). qPCR was performed using Luna® Universal qPCR Master Mix on CFX384™ Real-Time PCR Detection System (Bio-Rad). Each biological replicate of the RT-qPCR assay in this study was carried out in technical triplicates. Any technical replicate that deviated from other replicates by 0.4 cycle threshold (Ct) was removed from calculations of average Ct values. The primers used in this study are as follows: […]
(§2) To evaluate effects on the endogenous loci (CIRBP, RBM3 and SP1) real time quantitative polymerase chain reaction (RT-qPCR) was carried out after 16 h of either 32° C. or 37° C.—with or without the exposure to the compound during that time.

[5] = tested on: SP1; assay: RT-qPCR of endogenous SP1 relative to GAPDH; assay type: cell-based, human; settings: 16 h exposure at 37° C.
Method: as §1, §2

[6] = tested on: CIRBP; assay: RT-qPCR of endogenous CIRBP relative to GAPDH; assay type: cell-based, human; settings: 16 h exposure at 37° C.
Method: as §1, §2

[7] = tested on: SMYD5; assay: SMYD5 levels at 32° C. with proteasome inhibition; assay type: cell-based, human; settings: 6 hour exposure
Method: Cells were washed with PBS and then lysed for 30 min on ice in RIPA buffer (50 mM Tris HCl ph8, 150 mM NaCl, 1% NP-40, 1% Sodium deoxycholate, 0.1% SDS, 2 mM EDTA, phosphatase inhibitor (Cell signaling, Cat. #5870S), and Halt™ Protease Inhibitor Cocktail (Thermo Fisher, Cat. #78437). The lysates were centrifuged at 16,000×g for 20 minutes at 4° C. and the supernatants were collected. The supernatants were diluted with 4× loading buffer (Li-cor) and heated at 95° C. for 5 mins. The protein concentration was measured using Pierce™ BCA Assay Kit (Thermo Fisher). 20-30 μg protein samples were loaded into gels and separated by SDS-PAGE. They were transferred to polyvinylidene fluoride (PVDF) membranes and blocked in 5% bovine serum albumin in Tris-buffered saline with Tween 20 for 1 hour. Primary antibodies (rabbit anti-CIRBP, 1:2000, Cat. #10209-2-AP, Proteintech; rabbit anti-RBM3, 1:1000, CAT. #14363-1-AP, Proteintech; rabbit anti-SP1 1:1000, CAT. #21962-1-AP, Proteintech; mouse anti-Lamin 1, 1:5000, CAT. #66095-1-Ig, Proteintech; rabbit anti-SMYD5, 1:1000, in-house; rabbit anti-Phospho-SP1, 1:1000, CAT. #PA5-104771, Proteintech) were applied to respective membranes after washing, and incubated at 4° C. overnight. […] After washing, the protein bands were visualized on the Odyssey® CLx Infrared Imaging System and quantified by Image J software. […]

[8] = tested on: SP1, RBM3 and CIRBP; assay: Western blot of SP1, RBM3 and CIRBP after compound exposure; assay type: cell-based, human; settings: 24 h exposure at either 32° C. or 37° C.
Method: Cells were washed with PBS and then lysed for 30 min on ice in RIPA buffer (50 mM Tris HCl ph8, 150 mM NaCl, 1% NP-40, 1% Sodium deoxycholate, 0.1% SDS, 2 mM EDTA, phosphatase inhibitor (Cell signaling, Cat. #5870S), and Halt™ Protease Inhibitor Cocktail (Thermo Fisher, Cat. #78437). The lysates were centrifuged at 16,000×g for 20 minutes at 4° C. and the supernatants were collected. The supernatants were diluted with 4× loading buffer (Li-cor) and heated at 95° C. for 5 mins. The protein concentration was measured using Pierce™ BCA Assay Kit (Thermo Fisher). 20-30 μg protein samples were loaded into gels and separated by SDS-PAGE. They were transferred to polyvinylidene fluoride (PVDF) membranes and blocked in 5% bovine serum albumin in Tris-buffered saline with Tween 20 for 1 hour. Primary antibodies (rabbit anti-CIRBP, 1:2000, Cat. #10209-2-AP, Proteintech; rabbit anti-RBM3, 1:1000, CAT. #14363-1-AP, Proteintech; rabbit anti-SP1 1:1000, CAT. #21962-1-AP, Proteintech; mouse anti-Lamin 1, 1:5000, CAT. #66095-1-Ig, Proteintech; rabbit anti-SMYD5, 1:1000, in-house; rabbit anti-Phospho-SP1, 1:1000, CAT. #PA5-104771, Proteintech) were applied to respective membranes after washing, and incubated at 4° C. overnight. […] After washing, the protein bands were visualized on the Odyssey® CLx Infrared Imaging System and quantified by Image J software.

[9] = 40 h, read-out: increase in fluorescence of the SP1+MCRE-MHI

Structure (SMILES): Cc1nc(Nc2ncc(C(=O)Nc3c(C)cccc3Cl)s2)cc(N2CCN(CCO)CC2)n1 [Dasatinib]
fold induction at 20 µM [1, 9]: > 3.75

Structure (SMILES): C=CC(=O)Nc1cccc(Nc2nc(Nc3ccc(N4CCN(C(C)=O)CC4)cc3OC)ncc2C(F)(F)F)c1 [Rociletinib]
fold induction at 20 µM [1, 9]: > 3.75

Structure (SMILES): CC/C(=C(\c1ccccc1)c1ccc(OCCN(C)C)cc1)c1ccccc1 [Tamoxifen]
fold induction at 20 µM [1, 9]: > 3.75

Structure (SMILES): Cc1[nH]c(/C=C2\C(=O)Nc3ccccc32)c(C)c1CCC(=O)O [Orantinib]
fold induction at 20 µM [1, 9]: > 3.75

Structure (SMILES): Cc1ccc(C(=O)c2cc(O)c(O)c([N+](=O)[O-])c2)cc1 [Tolcapone]
fold induction at 20 µM ([1]; 16 h, read-out: relative increase of fluorescence of the SP1+MCRE-MHI compared to control): 1.8
fold induction at 20 µM ([1]; 28 h, read-out: relative increase of fluorescence of the SP1+MCRE-MHI compared to control): 1.7
fold induction at 20 µM ([1]; 40 h, read-out: relative increase of fluorescence of the SP1+MCRE-MHI compared to control): 1.9

cell cycle arrest [3]: Any signs of cell cycle arrest
Structure (SMILES): C=CC(=O)N1CCC(Oc2cc3c(Nc4ccc(Cl)c(Cl)c4F)ncnc3cc2OC)CC1 [Poziotinib]
fold induction at 20 µM [1, 9]: > 3.75
mean fluorescence of SP1-MHI by FACS ([2]; 16 hours at 37° C.): significantly (P<0.001, P<0.0001) increased fluorescence
RBM3 mRNA expression [4]: significantly (P<0.05) increased
SP1 mRNA expression [5]: trend towards increase
CIRBP mRNA expression [6]: trend towards increase

Structure (SMILES): C[C@@H](NCCCc1cccc(C(F)(F)F)c1)c1cccc2ccccc12 [Cincalcet]
increase in fluorescence of the SP1+MCRE-MHI ([1]; 20 μM, at one of the time points (16, 28, 40 h of drug exposure)): > 3.75 times

Structure (SMILES): CC[C@H]1OC(=O)[C@H](C)[C@@H](O[C@H]2C[C@@](C)(OC)[C@@H](O)[C@H](C)O2)[C@H](C)[C@@H](O[C@@H]2O[C@H](C)C[C@H](N(C)C)[C@H]2O)[C@](C)(O)C[C@@H](C)C(=O)[C@H](C)[C@@H](O)[C@]1(C)O [Erythromycin]
fold induction at 20 µM [1, 9]: > 3.75

Structure (SMILES): CC(C)C[C@@H](C=O)NC(=O)[C@H](CC(C)C)NC(=O)[C@H](CC(C)C)NC(=O)OCc1ccccc1 [MG132] (Cbz-Leu-Leu-Leu-aldehyde)
SMYD5 levels [7]: increases levels of SMYD5 at 32 °C to levels seen at 37 °C

Structure (SMILES): CCN(CC)C(=O)/C(C#N)=C/c1cc(O)c(O)c([N+](=O)[O-])c1 [Entacapone]
fold induction at 20 µM [1, 9]: > 3.75
mean fluorescence of SP1-MHI by FACS ([2]; 16 hours at 32° C.): significantly (P<0.01) potentiate fluorescence levels
mean fluorescence of SP1-MHI by FACS ([2]; 16 hours at 37° C.): significantly (P<0.001, P<0.0001) increased fluorescence
percentage of total cells in the S phase of cell cycle ([3]; 16 hours exposure at both 32° C. and 37° C.): slight increase
cell cycle arrest [3]: Any signs of cell cycle arrest
Western blot of SP1, RBM3 and CIRBP with versus without compound [8]: significant difference (P<0.05

Structure (SMILES): C=CCN1CC[C@]23c4c5ccc(O)c4O[C@H]2C(=O)CC[C@@]3(O)[C@H]1C5 [Naloxone]
fold induction at 20 µM [1, 9]: > 3.75

Structure (SMILES): CS(=O)(=O)CCNCc1ccc(-c2ccc3ncnc(Nc4ccc(OCc5cccc(F)c5)c(Cl)c4)c3c2)o1 [Lapatinib]
fold induction at 20 µM [1, 9]: > 3.75

Structure (SMILES): CN(C)C/C=C/C(=O)Nc1cc2c(Nc3ccc(F)c(Cl)c3)ncnc2cc1O[C@H]1CCOC1 [Afatinib]
fold induction at 20 µM [1, 9]: > 3.75
